Results: patent publication US20240173419A1, “CDK2 DEGRADERS AND USES THEREOF” (Kymera Therapeutics, Inc., priority 2022, published 2024)

Molecular target: T1, CDK2 (Homo sapiens, UniProt P24941)
T1 construct: endogenous in cells; host or cells: MKN1 cells
Test: CDK2 degradation in MKN1 cells (AlphaLISA)
Format: cell-based
Details: 14 h incubation; for DC50: read-out: CDK2 degradation 14 h: Mean external-Abs DC50
In short: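 MKN1 cells (2e4/well) treated 14 h at 37° C with 11-point 1:5 dilutions (0.001 nM-10 μM, 0.1% DMSO). CDK2 in lysates quantified by AlphaLISA, no-cell background subtracted; DC50 from four-parameter logistic fit.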

Compound	CDK2 degradation 14 h: Average Dmax %	DC50 [nM]
Cc1cc(S(=O)(=O)CCCO[C@H]2CC[C@H](CN3CCC(c4ccc5c(c4)n(C4CCC(=O)NC4=O)c(=O)n5C)CC3)CC2)ccc1Nc1nccc(-c2cnc(C)n2C(C)C)n1 (stereo partly shown) [I-4]	B (B (>50% -75%))	< 100
Cc1cc(S(=O)(=O)C2CC3(CCN(CC4CCN(c5ccc(C6CCC(=O)NC6=O)cc5)CC4)CC3)C2)ccc1Nc1ncc2cc(Cl)c(=O)n(C3CCCC3)c2n1 (stereo not shown) [I-81]	A (A (>75% o))	< 100
Cc1cc(S(=O)(=O)NCCCN2CCN(CC3CCN(c4ccc5c(c4)n(C)c(=O)n5C4CCC(=O)NC4=O)CC3)CC2)ccc1Nc1ncc2cc(Cl)c(=O)n(C(C)C)c2n1 (stereo not shown) [I-400]	A (A (>75% o))	< 100
CC1(O)CCCN(c2nc(Nc3ccc(S(=O)(=O)NC4CCC(CN5CCN(c6ccc(C7CCC(=O)NC7=O)c(F)c6)CC5)CC4)cc3C(F)F)ncc2C(F)(F)F)C1 (stereo not shown) [I-944]	A (A (>75% o))	< 100
[2H]C([2H])([2H])c1cc(S(=O)(=O)NC2CCC(CN3CCN(c4ccc(C5CCC(=O)NC5=O)c(F)c4)CC3)CC2)ccc1Nc1ncc(C(F)(F)F)c(N2CCCC(C)(O)C2)n1 (stereo not shown) [I-1072]	A (A (>75% o))	–
Cc1cc(S(=O)(=O)NC2CCN(CC3CCN(c4ccc(C5CCC(=O)NC5=O)cc4F)CC3)CC2F)ccc1Nc1ncc(C(F)(F)F)c(N2CCCC(C)(O)C2)n1 (stereo not shown) [I-1055]	A (A (>75% o))	< 100
Cc1cc(S(=O)(=O)C2CC3(CCN(CC4CCN(c5ccc(NC6CCC(=O)NC6=O)cc5F)CC4)CC3)C2)ccc1Nc1ncc2cc(Cl)c(=O)n(C3CCCC3)c2n1 (stereo not shown) [I-152]	B (B (>50% -75%))	< 100
Cc1cc(S(=O)(=O)C2CC3(CCN(CC4CCN(c5cc(F)cc(NC6CCC(=O)NC6=O)c5)CC4)CC3)C2)ccc1Nc1ncc2cc(Cl)c(=O)n(C3CCCC3)c2n1 (stereo not shown) [I-69]	A (A (>75% o))	100 to 500
Cc1cc(S(=O)(=O)N2CCC(OCCCc3cccc4c3n(C)c(=O)n4C3CCC(=O)NC3=O)CC2)ccc1Nc1ncc2ccc(=O)n(C3CCCC3)c2n1 (stereo not shown) [I-454]	C (C (>25% -50%))	> 1000
Cc1cc(S(=O)(=O)C2CC3(CCN(CC4CCN(c5ccc6c(c5F)n(C)c(=O)n6C5CCC(=O)NC5=O)CC4)CC3)C2)ccc1Nc1ncc(C(F)(F)F)c(C2CCC(O)(C(C)C)CC2)n1 (stereo not shown) [I-516]	B (B (>50% -75%))	> 1000
Cc1cc(S(=O)(=O)NC2CCC(CN3CCN(c4cc(NC5CCC(=O)NC5=O)ccc4F)CC3)CC2)ccc1Nc1ncc(C(F)(F)F)c(N2CCCC(C)(O)C2)n1 (stereo not shown) [I-1120]	A (A (>75% o))	< 100
Cc1cc(S(=O)(=O)C2CC3(CCN(CC4CCN(c5cccc6c5n(C)c(=O)n6C5CCC(=O)NC5=O)CC4)CC3)C2)ccc1Nc1ncc2cc(Cl)c(=O)n(C3CCCC34CC4)c2n1 (stereo not shown) [I-44]	A (A (>75% o))	< 100
Cc1cc(S(=O)(=O)N2CCC(CCN3CCN(c4cccc5c4n(C)c(=O)n5C4CCC(=O)NC4=O)CC3)CC2)ccc1Nc1ncc2cc(Cl)c(=O)n(C3CCCC3)c2n1 (stereo not shown) [I-423]	A (A (>75% o))	< 100
Cc1cc(S(=O)(=O)NCCOCCOCCOCCCc2ccc3c(c2)n(C)c(=O)n3C2CCC(=O)NC2=O)ccc1Nc1ncc2cc(Cl)c(=O)n(C3CCCC3)c2n1 (stereo not shown) [I-461]	A (A (>75% o))	< 100
Cc1cc(S(=O)(=O)C2CC3(CCN(CC4CCN(c5cccc6c5n(C)c(=O)n6C5CCC(=O)NC5=O)CC4)CC3)C2)ccc1Nc1ncc(C(F)(F)F)c(N2CCC(C(C)(C)O)C2)n1 (stereo not shown) [I-842]	A (A (>75% o))	< 100
Cc1cc(S(=O)(=O)N2CCC(CN(C)C3CCN(c4cccn5c(N6CCC(=O)NC6=O)cnc45)CC3)CC2)ccc1Nc1ncc2cc(Cl)c(=O)n(C3CCCC3)c2n1 [I-414]	B (B (>50% -75%))	100 to 500
